Results from US11021721B2, “Genetically engineered Pseudomonas strains capable of metabolizing ethylene glycol and its metabolic intermediates” (Alliance for Sustainable Energy, LLC, priority 2017, dated 2021).
Several values for one entry are separate records, joined by “and”; a condition that tells them apart may be missing. Equal values may be shown once.

Key:
P. putida KT2440 [1] = experiment: C-limited chemostat cultivation on acetate with co-feed of ethylene glycol or glyoxylate; assay type: cell-based, Pseudomonas putida KT2440; conditions: for increase of biomass yield on acetate: 30 mM co-feed with 30 mM acetate, compared to control with only acetate; for reducing equivalents generated through co-metabolism: co-feed with acetate, assuming all glyoxylate is metabolized through the glyoxylate shunt
Procedure: FIG. 14 depicts co-feeding of P. putida KT2440 in C-limited chemostat cultivations on mineral medium with 30 mM acetate supplemented with 30 mM ethylene glycol (black), 30 mM glyoxylate (green), or no co-feed (grey). FIG. 14A depicts a comparison of biomass (OD600) at steady state. FIG. 14B depicts extracellular metabolites at steady state. […] FIG. 14C depicts flux analysis of redox equivalent-yielding metabolism of ethylene glycol (upper value) or glyoxylate (lower value) in mM gCDW^−1 h^−1. Cells were grown at a dilution rate of 0.2. Error bars indicate the deviation from the mean (n=2).
To investigate the applicability of ethylene glycol as a co-substrate, P. putida KT2440 was cultured in carbon-limited chemostat cultivations with acetate as carbon source, and either ethylene glycol or glyoxylate as an energy source. Acetate was chosen because it induces the glyoxylate shunt enzymes.
Energy and redox equivalent homeostasis is essential for efficient growth of a bacterial cell.

P. putida KT2440 [2] = experiment: Toxicity tests in Bioscreen C: growth in M9 minimal medium with 20 mM glucose and inhibitor; assay type: cell-based, Pseudomonas putida KT2440; conditions: 20 mM glucose
Procedure: Toxicity tests and competitive inhibition assays were performed using Bioscreen C MBR analyzers (Growth Curves US, Piscataway, N.J.). For toxicity tests, overnight cultures of P. putida KT2440 were grown in M9 medium containing 20 mM glucose starting at an OD600 of 0.05-0.1 at 30° C. with shaking at 225 rpm in baffled shake flasks until the OD600 reached about 1.0-1.5. Cells were subsequently concentrated by centrifugation and inoculated into wells of Bioscreen C microplates at an initial OD600=0.05. Each well contained a total volume of 300 M9 medium, 20 mM glucose, and inhibitors at various concentrations. Incubations were performed at 30° C. with maximum shaking. Absorbance readings were taken every 15 min. […] Initial OD600 was set at 0.1 by using an overnight culture of wild type P. putida KT2440. Samples were incubated as described above. Operation of the Bioscreen C MBR and collection of turbidity measurements (OD420-580) were computer automated with EZ Experiment.
Growth curves were obtained from Bioscreen C analyzers (Growth Curves US, Piscataway, N.J.). Overnight cultures of P. putida KT2440 were grown in M9 medium containing 20 mM glucose starting at an OD600 of 0.05-0.1, 30° C., 225 rpm (baffled shake flask) until the OD600 reached ˜1.0-1.5. Cells were concentrated by centrifugation and inoculated into wells of Bioscreen C microplates containing various inhibitors and concentrations in the presence of 20 mM glucose at and additional OD600=0.05 in a total volume of 300 μL. Incubations were performed at 30° C. and absorbance readings were taken every 15 min. Operation of the Bioscreen C and collection of turbidity measurements (OD420-580) were computer automated with EZ Experiment. Data was collected and exported to Microsoft Excel spreadsheets for analysis.

P. putida KT2440 [3] = experiment: Competitive inhibition assay, glycolaldehyde and glyoxal full-factorial growth test (Bioscreen C); assay type: cell-based, Pseudomonas putida KT2440
Procedure: FIG. 13 depicts synergistic inhibitory effect of glycolaldehyde and glyoxal. Growth assays were conducted in 100 well plates in the Bioscreen C MBR analyzer. Individual wells of the plate were filled with 200 μL of M9 medium-containing 20 mM glucose and the respective concentration of glycolaldehyde and glyoxal according to a 3-level full-factorial design (Table 3), growth rates expressed as means±SEM (n=3). Bars labeled with different letters indicate statistical significance of different runs (p<0.05; one-way ANOVA followed by Tukey's post hoc honest significance difference test).
Toxicity tests and competitive inhibition assays were performed using Bioscreen C MBR analyzers (Growth Curves US, Piscataway, N.J.). For toxicity tests, overnight cultures of P. putida KT2440 were grown in M9 medium containing 20 mM glucose starting at an OD600 of 0.05-0.1 at 30° C. with shaking at 225 rpm in baffled shake flasks until the OD600 reached about 1.0-1.5. Cells were subsequently concentrated by centrifugation and inoculated into wells of Bioscreen C microplates at an initial OD600=0.05. Each well contained a total volume of […] M9 medium, 20 mM glucose, and inhibitors at various concentrations. Incubations were performed at 30° C. with maximum shaking. Absorbance readings were taken every 15 min. For competitive inhibition assays, individual wells of the plate were filled with 200 μL of M9 medium containing 20 mM glucose and a respective concentration of glycolaldehyde and glyoxal according to full-factorial test run results of which are presented in Table 3 and depicted in graphical form in FIG. 13. Initial OD600 was set at 0.1 by using an overnight culture of wild type P. putida KT2440. Samples were incubated as described above. Operation of the Bioscreen C MBR and collection of turbidity measurements (OD420-580) were computer automated with EZ Experiment.
The toxicity effects of ethylene glycol, glyoxylate, glycolaldehyde, glyoxal and oxalate on P. putida KT2440 were examined by monitoring growth in the Bioscreen C instrument (a microplate reader which monitors turbidity over time) in the presence of M9 minimal medium containing 20 mM glucose and the inhibitor, see FIG. 20. The average OD of at least 5 wells was plotted in FIG. 9. […] Glyoxal, an oxidation product of glycolaldehyde, is also very inhibitory to P. putida KT2440 growth at a 5 mM concentration where a long lag phase is observed. At 7.5 mM, glyoxal is lethal to the cells. Therefore, glycolaldehyde and glyoxal are intermediate metabolites which result in ethylene glycol toxicity on P. putida KT2440. Glycolaldehyde exerts combinational inhibitory effect with other compounds, such as 5-HMF, furfural, and methylglyoxal. The combinational inhibitory effect of glycolaldehyde and glyoxal was determined by running three level full-factorial growth experiments, see FIG. 13 and Table 3.

P. putida KT2440 [4] = conditions: on glucose, co-feed of formate, similar conditions; cited from earlier work
[5] = biological target: tartronate semialdehyde reductase (GlxR); conditions: cited from earlier work

SMILES: OCCO [Ethylene glycol, ethylene glycol]
- increase of biomass yield on acetate (P. putida KT2440 [1]): 29.6±1.1%
- reducing equivalents generated through co-metabolism (P. putida KT2440 [1]): 27.3±2.6 mmol (g CDW)^−1 h^−1

SMILES: O=CCO [Glycolaldehyde, glycolaldehyde]
- concentration that completely inhibited growth (P. putida KT2440 [2]): 4000 µM
- concentration that inhibits growth (P. putida KT2440 [2]): 3000 µM
- Growth Rate (P. putida KT2440 [3]; in the presence of 2 mM glycolaldehyde): 0.22 h⁻¹ and 0.291 ± 0.001 h⁻¹
- Growth Rate (P. putida KT2440 [3]; run 13: glycolaldehyde 1.0 mM, glyoxal 0 mM): 0.281 h⁻¹
- Growth Rate (P. putida KT2440 [3]; run 14: glycolaldehyde 1.5 mM, glyoxal 0 mM): 0.221 h⁻¹
- Growth Rate (P. putida KT2440 [3]; run 15: glycolaldehyde 2 mM, glyoxal 0 mM): 0.218 h⁻¹

SMILES: O=CC=O [Glyoxal, glyoxal]
- concentration inhibitory to growth with long lag phase (P. putida KT2440 [2]): 5000 µM
- lethal concentration (P. putida KT2440 [2]): 7.5 mM
- Growth Rate (P. putida KT2440 [3]; in the presence of 2 mM glyoxal): 0.25 h⁻¹ and 0.297 ± 0.001 h⁻¹
- Growth Rate (P. putida KT2440 [3]; run 1: glycolaldehyde 0 mM, glyoxal 1.0 mM): 0.297 h⁻¹
- Growth Rate (P. putida KT2440 [3]; run 2: glycolaldehyde 0 mM, glyoxal 1.5 mM): 0.280 h⁻¹
- Growth Rate (P. putida KT2440 [3]; run 3: glycolaldehyde 0 mM, glyoxal 2.0 mM): 0.246 h⁻¹

SMILES: O=CO [formate]
- reducing equivalents at maximal achievable biomass yield (P. putida KT2440 [4]): 7.6±0.9 mmol (g CDW)^−1 h^−1

SMILES: O=C(O)CO [glycolate]
- Ki ([5]; inhibition of GlxR): 3000 µM

SMILES: O=CC(=O)O [glyoxylate]
- increase of biomass yield on acetate (P. putida KT2440 [1]): 22.2±8.2%
- reducing equivalents generated through co-metabolism (P. putida KT2440 [1]): 14.4±0.5 mmol (g CDW)^−1 h^−1

SMILES: O=C(O)C(=O)CO [hydroxypyruvate]
- maximal velocity as GlxR substrate, fold lower than tartronate semialdehyde [5]: 10 fold

SMILES: O=C([O-])C(=O)[O-].[Na+].[Na+] [sodium oxalate]
- concentration not significantly inhibitory to growth (P. putida KT2440 [2]): up to 50 mM
